Laboratory results reported in patent US10100097B2, “GIP-GLP-1 dual agonist compounds and methods” (Zealand Pharma A/S, priority 2012, dated 2018).
Numbered stars: 1 amine (or outer) side, 2 acyl side, 3 side chain; on linkers, the order of the positions; unused ones are H or OH. Square brackets hold non-standard residues; d marks the D form. Side chains are listed from the residue outwards. Peptide text beside a SMILES is read from it. * marks the point of attachment. γGlu = O=C(O)[C@H](CCC(=O)[*:2])N[*:1]; Palmitoyl = CCCCCCCCCCCCCCCC(=O)*; Aib = CC(C)(N)C(=O)O

Experiments:
[1] = target: T1, human GLP-1 R (Homo sapiens, UniProt P43220); assay: Human GLP-1 receptor (GLP-1 R) activity assay, cAMP induction (AlphaScreen cAMP kit); format: cell-based; conditions: HEK293 cells expressing the human GLP-1 R, 15 min at 37° C., average values of multiple determinations, read-out: GLP1 R (EC50 in nM)
T1 construct: expressed in transfected cells
Method in brief: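 Stable HEK293 clones expressing human GIP R or GLP-1 R, grown 1 day, washed in Tyrode's buffer (10 mM HEPES, pH 7.4), then stimulated with peptide. Cells lysed and cAMP quantified by AlphaScreen competition with biotinylated cAMP, 1 h dark incubation at room temperature.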

[2] = in vivo; conditions: C57BL/6J, mouse, plasma, sc, 200 nmol/kg
Experimental: C57BL/6J mice were given a single subcutaneous dose of 200 nmol/kg body weight of each peptide to be tested. Blood samples were drawn 0.5, 2, 4, 6, 8, 16, 24 and 36 hours post-dose by sublingual bleeding. At each time point, samples from two mice were taken, i.e. 16 mice per compound. The mice were euthanized immediately after blood sampling by cervical dislocation. Plasma samples were analyzed after solid phase extraction (SPE) by liquid chromatography mass spectrometry (LC-MS/MS).

[3] = test system: Male C57BL/6J mice; assay: IPGTT (Intraperitoneal Glucose Tolerance Test) in mice; format: in vivo
Experimental: IPGTT (Intraperitoneal Glucose Tolerance Test) in Mice
Male C57BL/6J mice (Charles River, Germany) were maintained on normal chow (Altromin 1324, Brogaarden A/S, Gentofte, Denmark) and domestic quality water with added citric acid to pH˜3.6. The animals were housed pair-wise in a light-, temperature-, and humidity-controlled room (12:12 h light-dark cycle, with lights on at 06.00-18.00 hr; 20-22° C.; 50-80% relative humidity). Mice were fasted for 5 hr before the IPGTT. Peptides and vehicle were administered subcutaneously before the intraperitoneal injection of glucose (t=0 min; 2 g/kg; 5 ml/kg). Tail vein blood was sampled at time t=0 (before glucose administration), 15, 30, 45, 60, 90, and 120 min for measurements of blood glucose.

T1 sequence (P43220 24-463): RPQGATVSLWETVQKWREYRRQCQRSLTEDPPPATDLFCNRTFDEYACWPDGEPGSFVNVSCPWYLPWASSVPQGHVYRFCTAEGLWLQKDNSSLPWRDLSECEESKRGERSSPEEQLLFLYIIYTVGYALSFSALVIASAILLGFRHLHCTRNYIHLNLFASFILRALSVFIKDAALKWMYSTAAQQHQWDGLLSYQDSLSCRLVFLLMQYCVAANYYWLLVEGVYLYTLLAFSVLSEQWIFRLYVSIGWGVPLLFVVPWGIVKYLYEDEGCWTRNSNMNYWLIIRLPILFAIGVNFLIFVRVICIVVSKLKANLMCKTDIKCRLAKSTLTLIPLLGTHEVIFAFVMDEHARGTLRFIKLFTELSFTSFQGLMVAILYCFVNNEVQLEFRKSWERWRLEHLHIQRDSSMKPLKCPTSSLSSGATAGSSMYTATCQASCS

Q: What does the source list for `CCCCCCCCCCCCCCCC(=O)N[C@@H](CCC(=O)NCCCC[C@H](NC(=O)[C@H](CCCCN)NC(=O)[C@H](CC(=O)O)NC(=O)[C@H](CC(C)C)NC(=O)[C@H](Cc1ccc(O)cc1)NC(=O)[C@@H](NC(=O)[C@H](CO)NC(=O)[C@H](Cc1ccc(O)cc1)NC(=O)[C@H](CC(=O)O)NC(=O)[C@H](CO)NC(=O)[C@@H](NC(=O)[C@H](Cc1ccccc1)NC(=O)[C@@H](NC(=O)CNC(=O)[C@H](CCC(=O)O)NC(=O)C(C)(C)NC(=O)[C@@H](N)Cc1ccc(O)cc1)[C@@H](C)O)[C@@H](C)O)[C@@H](C)CC)C(=O)N[C@@H](C)C(=O)N[C@@H](CCC(N)=O)C(=O)N[C@@H](CCCNC(=N)N)C(=O)N[C@@H](C)C(=O)N[C@@H](Cc1ccccc1)C(=O)N[C@H](C(=O)N[C@@H](CCC(=O)O)C(=O)N[C@@H](Cc1c[nH]c2ccccc12)C(=O)N[C@@H](CC(C)C)C(=O)N[C@@H](CC(C)C)C(=O)N[C@@H](C)C(=O)N[C@@H](CCC(N)=O)C(=O)NCC(=O)N1CCC[C@H]1C(=O)N[C@@H](CO)C(=O)N[C@@H](CO)C(=O)NCC(=O)N[C@@H](C)C(=O)N1CCC[C@H]1C(=O)N1CCC[C@H]1C(=O)N1CCC[C@H]1C(=O)N[C@@H](CO)C(N)=O)C(C)C)C(=O)O` [Compound 33] (H-Y[Aib]EGTFTSDYSIYLDKK([γGlu-Palmitoyl])AQRAFVEWLLAQGPSSGAPPPS-NH2)?
A: EC50 [1]: 0.031 nM; half-life [2]: 222 min; Effect on glucose tolerance as compared to vehicle ([3]; glucose 2 g/kg i.p., peptides s.c., all time points, p<0.05 vs. vehicle): significantly improved glucose tolerance; Reduction in blood glucose compared with liraglutide ([3]; time t=60 min, p<0.05 vs. liraglutide): statistically significant greater reduction
